Data from patent US10874107B2, “β-lactamase targeted photosensitizer for pesticide and pest detection” (The General Hospital Corporation, priority 2012, dated 2020).

Assays:
[1] = biological target: β-lactamase from Enterobacter cloacae (Enterobacter cloacae, UniProt P05364); test: Enzyme-mediated cleavage of the prodrug (fluorescence emission); type: biochemical
Text: FIGS. 6A and B show plots of (a) fluorescence emission vs. wavelength and (b) fluorescence emission vs. time for the Cephalosporanic acid-photosensitizer prodrug, depicting the enzyme-mediated cleavage of the prodrug.
The prodrug obtained was further studied for release of photosensitizer in presence of β-lactamase from Enterobacter cloacae. For the fluorescence emission study of the prodrug, the solvent employed was water, and the excitation wavelength 635 nm in the presence of beta-lactamase enzyme (from Enterobacter cloacae). Time-dependent fluorescence emission was also measured for photosensitizer release from the prodrug in the presence of enzyme. […] Thus, the prodrug was ynthesized and characterized.

[2] = UV-visible and fluorescence emission spectra of prodrug vs. free photosensitizer (TBO); type: physicochemical

Chain of β-lactamase from Enterobacter cloacae (P05364 21-381): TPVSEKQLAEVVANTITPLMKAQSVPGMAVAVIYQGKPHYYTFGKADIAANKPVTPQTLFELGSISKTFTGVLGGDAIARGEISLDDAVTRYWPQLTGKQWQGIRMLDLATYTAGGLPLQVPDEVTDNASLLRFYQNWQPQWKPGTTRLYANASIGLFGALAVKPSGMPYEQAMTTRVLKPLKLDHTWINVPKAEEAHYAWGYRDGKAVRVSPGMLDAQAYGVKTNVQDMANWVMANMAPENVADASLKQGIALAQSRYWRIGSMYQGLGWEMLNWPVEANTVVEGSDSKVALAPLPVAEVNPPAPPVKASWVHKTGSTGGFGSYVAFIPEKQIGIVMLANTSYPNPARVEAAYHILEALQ

Cephalosporanic Acid-Toluidine blueO Prodrug
lactamase-specific activity [1]: demonstrated lactamase-specific activity
increase in excited stated properties (fluorescence emission) on incubation with enzyme ([1]; water, excitation 635 nm, within minutes of incubation with β-lactamase): ~5 fold
quenching of the photosensitizer in the conjugated form [2]: quantitative quenching
reduction in fluorescence emission maxima (prodrug vs. TBO) ([2]; 635 nm excitation, ethanol): ~8 fold
shift in the absorption spectra (UV-visible) ([2]; ethanol, 2.0×10^−5 M, vs. TBO): blue shift
